#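 In this assay, cells in 96-well plates receive the compound at five concentrations for 48 hours. Endpoints are linearly interpolated between the surrounding concentrations. Definition used: TGI = concentration required for complete inhibition of growth.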
# Tests used:
# Assay in all cases: growth of human tumour cells (NCI), 48 h
# [1] = test system: 786-0 renal
# [2] = test system: A498 renal
# [3] = test system: A549 NSCLC
# [4] = test system: ACHN renal
# [5] = test system: BT-549 breast
# [6] = test system: CAKI-1 renal
# [7] = test system: CCRF-CEM leukemia
# [8] = test system: COLO 205 colon
# [9] = test system: DU-145 prostate
# [10] = test system: EKVX NSCLC
# [11] = test system: HCC-2998 colon
# [12] = test system: HCT-116 colon
# [13] = test system: HCT-15 colon
# [14] = test system: HOP-62 NSCLC
# [15] = test system: HOP-92 NSCLC
# [16] = test system: HS 578T breast
# [17] = test system: HT29 colon
# [18] = test system: IGROV1 ovarian
# [19] = test system: K-562 leukemia
# [20] = test system: KM12 colon
# [21] = test system: LOX IMVI melanoma
# [22] = test system: M14 melanoma
# [23] = test system: MALME-3M melanoma
# [24] = test system: MCF7 breast
# [25] = test system: MDA-MB-231 breast
# [26] = test system: MDA-MB-435
# [27] = test system: MDA-N
# [28] = test system: MOLT-4 leukemia
# [29] = test system: NCI-H23 lung
# [30] = test system: NCI-H460 lung
# [31] = test system: NCI-H522 lung
# [32] = test system: NCI/ADR-RES ovarian
# [33] = test system: OVCAR-4 ovarian
# [34] = test system: OVCAR-5 ovarian
# [35] = test system: OVCAR-8 ovarian
# [36] = test system: PC-3 prostate
# [37] = test system: RPMI-8226 leukemia
# [38] = test system: RXF 393 renal
# [39] = test system: SF-268 CNS
# [40] = test system: SF-295 CNS
# [41] = test system: SK-MEL-2 melanoma
# [42] = test system: SK-MEL-28 melanoma
# [43] = test system: SK-MEL-5 melanoma
# [44] = test system: SK-OV-3 ovarian
# [45] = test system: SN12C renal
# [46] = test system: SNB-19 CNS
# [47] = test system: SNB-75 CNS
# [48] = test system: SR leukemia
# [49] = test system: SW-620 colon
# [50] = test system: TK-10 renal
# [51] = test system: U251 CNS
# [52] = test system: UACC-257 melanoma
# [53] = test system: UACC-62 melanoma
# [54] = test system: UO-31 renal
smiles,measurement,setting,value
Nc1[nH]nc2nc3ccc(C(F)(F)F)cc3nc12,TGI,[1],60.7 µM
same,TGI,[2],> 100 µM
same,TGI,[3],> 100 µM
same,TGI,[4],> 100 µM
same,TGI,[5],> 100 µM
same,TGI,[6],> 100 µM
same,TGI,[7],37.9 µM
same,TGI,[8],57.3 µM
same,TGI,[9],36.8 µM
same,TGI,[10],> 100 µM
same,TGI,[11],> 100 µM
same,TGI,[12],> 100 µM
same,TGI,[13],> 100 µM
same,TGI,[14],58.8 µM
same,TGI,[15],78 µM
same,TGI,[16],> 100 µM
same,TGI,[17],> 100 µM
same,TGI,[18],72.2 µM
same,TGI,[19],> 100 µM
same,TGI,[20],> 100 µM
same,TGI,[21],50.8 µM
same,TGI,[22],> 100 µM
same,TGI,[23],> 100 µM
same,TGI,[24],31.1 µM
same,TGI,[25],> 100 µM
same,TGI,[26],> 100 µM
same,TGI,[27],> 100 µM
same,TGI,[28],> 100 µM
same,TGI,[29],57.2 µM
same,TGI,[30],52.9 µM
same,TGI,[31],38.8 µM
same,TGI,[32],> 100 µM
same,TGI,[33],> 100 µM
same,TGI,[34],99.2 µM
same,TGI,[35],46 µM
same,TGI,[36],> 100 µM
same,TGI,[37],> 100 µM
same,TGI,[38],57.1 µM
same,TGI,[39],> 100 µM
same,TGI,[40],97.3 µM
same,TGI,[41],84.3 µM
same,TGI,[42],42.6 µM
same,TGI,[43],> 100 µM
same,TGI,[44],52.7 µM
same,TGI,[45],> 100 µM
same,TGI,[46],> 100 µM
same,TGI,[47],41.3 µM
same,TGI,[48],> 100 µM
same,TGI,[49],33.4 µM
same,TGI,[50],> 100 µM
same,TGI,[51],> 100 µM
same,TGI,[52],45.4 µM
same,TGI,[53],69.1 µM
same,TGI,[54],49.9 µM
